# Test results reported in ChEMBL document CHEMBL1201862, “PubChem BioAssay data set” (2004).
#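 Method: 48-hour compound exposure of cells in 96-well plates, five concentrations, linear interpolation of endpoints. GI50 is the concentration that inhibits growth by half.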 The source made the active and inactive calls. Cut-off read from the data, not from the text of the source: active = GI50 up to about 1.1 µM and inactive = higher.
# How the values were obtained:
# Experiment in all cases: inhibition of tumour cell growth, NCI panel, 48 h
# [1] = test system: SK-OV-3
# [2] = test system: OVCAR-4
# [3] = test system: SF-539
# [4] = test system: SNB-19
# [5] = test system: SK-MEL-2
# [6] = test system: HCT-15
# [7] = test system: TK-10
# [8] = test system: IGROV-1
# [9] = test system: EKVX
# [10] = test system: CAKI-1
# [11] = test system: COLO 205
# [12] = test system: U-251
# [13] = test system: OVCAR-8
# [14] = test system: NCI/ADR-RES
# [15] = test system: SR
# [16] = test system: MDA-MB-435
# [17] = test system: A549
# [18] = test system: K562
# [19] = test system: A498
# [20] = test system: UO-31
# [21] = test system: HOP-92
# [22] = test system: NCI-H226
# [23] = test system: HOP-62
# [24] = test system: LOX IMVI
# [25] = test system: KM12
# [26] = test system: DU-145
# [27] = test system: Hs-578T
# [28] = test system: SK-MEL-28
# [29] = test system: ACHN
# [30] = test system: HCC 2998
# [31] = test system: HL-60
# [32] = test system: T47D
# [33] = test system: SF-268
# [34] = test system: SW-620
# [35] = test system: NCI-H23
# [36] = test system: SF-295
# [37] = test system: OVCAR-3
# [38] = test system: PC-3
# [39] = test system: Malme-3M
# [40] = test system: M14
# [41] = test system: 786-0
# [42] = test system: MCF7
# [43] = test system: SNB-75
# [44] = test system: HT-29
# [45] = test system: MDA-MB-231
# [46] = test system: BT-549
# [47] = test system: OVCAR-5
# [48] = test system: NCI-H460
# [49] = test system: MDA-N
# [50] = test system: HCT-116
# [51] = test system: SN12C
# [52] = test system: UACC-62
# [53] = test system: SK-MEL-5
# [54] = test system: RPMI-8226
# [55] = test system: RXF 393
# [56] = test system: NCI-H522
# [57] = test system: MOLT-4
# [58] = test system: CCRF-CEM
# [59] = test system: UACC-257
smiles,measurement,setting,value
CC(=O)NC1C(OCc2ccccc2)OC(CO)C(O)C1OCC(=O)NC(C)C(=O)NC(CCC(=O)NCCCCNc1ccc([N+](=O)[O-])c2[nH]c3ccccc3c(=O)c12)C(N)=O (centres undefined),GI50,[1],> 100 µM (inactive)
same,GI50,[2],40.5 µM (inactive)
same,GI50,[3],49.3 µM (inactive)
same,GI50,[4],36.7 µM (inactive)
same,GI50,[5],> 100 µM (inactive)
same,GI50,[6],65 µM
same,GI50,[7],92.9 µM (inactive)
same,GI50,[8],56 µM (inactive)
same,GI50,[9],88.5 µM (inactive)
same,GI50,[10],> 100 µM (inactive)
same,GI50,[11],> 100 µM (inactive)
same,GI50,[12],79.1 µM (inactive)
same,GI50,[13],> 100 µM (inactive)
same,GI50,[14],> 100 µM (inactive)
same,GI50,[15],2.87 µM (inactive)
same,GI50,[16],> 100 µM (inactive)
same,GI50,[17],50.1 µM (inactive)
same,GI50,[18],> 100 µM (inactive)
same,GI50,[19],> 100 µM (inactive)
same,GI50,[20],> 100 µM (inactive)
same,GI50,[21],> 100 µM (inactive)
same,GI50,[22],66.1 µM (inactive)
same,GI50,[23],> 100 µM (inactive)
same,GI50,[24],> 100 µM (inactive)
same,GI50,[25],90.2 µM (inactive)
same,GI50,[26],> 100 µM (inactive)
same,GI50,[27],29.6 µM (inactive)
same,GI50,[28],> 100 µM (inactive)
same,GI50,[29],48.9 µM (inactive)
same,GI50,[30],> 100 µM (inactive)
same,GI50,[31],> 100 µM (inactive)
same,GI50,[32],> 100 µM (inactive)
same,GI50,[33],38.8 µM (inactive)
same,GI50,[34],> 100 µM (inactive)
same,GI50,[35],> 100 µM (inactive)
same,GI50,[36],34.6 µM (inactive)
same,GI50,[37],> 100 µM (inactive)
same,GI50,[38],> 100 µM (inactive)
same,GI50,[39],> 100 µM (inactive)
same,GI50,[40],71.1 µM (inactive)
same,GI50,[41],42.9 µM (inactive)
same,GI50,[42],> 100 µM (inactive)
same,GI50,[43],43.9 µM (inactive)
same,GI50,[44],69.3 µM (inactive)
same,GI50,[45],> 100 µM (inactive)
same,GI50,[46],30.1 µM (inactive)
same,GI50,[47],> 100 µM (inactive)
same,GI50,[48],68.5 µM (inactive)
same,GI50,[49],> 100 µM (inactive)
same,GI50,[50],63.7 µM (inactive)
same,GI50,[51],> 100 µM (inactive)
CC(=O)Nc1ccc(CNc2cc(=O)[nH]c(=O)[nH]2)cc1,GI50,[52],> 100 µM (inactive)
same,GI50,[1],> 100 µM (inactive)
same,GI50,[2],> 100 µM (inactive)
same,GI50,[3],> 100 µM (inactive)
same,GI50,[4],> 100 µM (inactive)
same,GI50,[5],> 100 µM (inactive)
same,GI50,[6],> 100 µM
same,GI50,[7],> 100 µM (inactive)
same,GI50,[8],> 100 µM (inactive)
same,GI50,[9],> 100 µM (inactive)
same,GI50,[53],> 100 µM (inactive)
same,GI50,[10],> 100 µM (inactive)
same,GI50,[11],> 100 µM (inactive)
same,GI50,[12],> 100 µM (inactive)
same,GI50,[13],> 100 µM (inactive)
same,GI50,[14],> 100 µM (inactive)
same,GI50,[54],> 100 µM (inactive)
same,GI50,[15],> 100 µM (inactive)
same,GI50,[16],> 100 µM (inactive)
same,GI50,[17],> 100 µM (inactive)
same,GI50,[18],> 100 µM (inactive)
same,GI50,[20],> 100 µM (inactive)
same,GI50,[21],> 100 µM (inactive)
same,GI50,[22],> 100 µM (inactive)
same,GI50,[23],> 100 µM (inactive)
same,GI50,[24],> 100 µM (inactive)
same,GI50,[25],> 100 µM (inactive)
same,GI50,[26],> 100 µM (inactive)
same,GI50,[27],> 100 µM (inactive)
same,GI50,[28],> 100 µM (inactive)
same,GI50,[29],> 100 µM (inactive)
same,GI50,[30],> 100 µM (inactive)
same,GI50,[31],> 100 µM (inactive)
same,GI50,[32],> 100 µM (inactive)
same,GI50,[33],> 100 µM (inactive)
same,GI50,[34],> 100 µM (inactive)
same,GI50,[35],> 100 µM (inactive)
same,GI50,[36],> 100 µM (inactive)
same,GI50,[37],> 100 µM (inactive)
same,GI50,[38],> 100 µM (inactive)
same,GI50,[39],> 100 µM (inactive)
same,GI50,[40],> 100 µM (inactive)
same,GI50,[41],> 100 µM (inactive)
same,GI50,[42],> 100 µM (inactive)
same,GI50,[43],> 100 µM (inactive)
same,GI50,[55],> 100 µM (inactive)
same,GI50,[44],> 100 µM (inactive)
same,GI50,[56],> 100 µM (inactive)
same,GI50,[45],> 100 µM (inactive)
same,GI50,[57],> 100 µM (inactive)
same,GI50,[46],> 100 µM (inactive)
same,GI50,[47],> 100 µM (inactive)
same,GI50,[58],> 100 µM (inactive)
same,GI50,[48],> 100 µM (inactive)
same,GI50,[59],> 100 µM (inactive)
same,GI50,[49],> 100 µM (inactive)
same,GI50,[50],> 100 µM (inactive)
same,GI50,[51],> 100 µM (inactive)
